Assay results from ChEMBL document CHEMBL1201862, “PubChem BioAssay data set” (2004).
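Step 1: Grow cells in 96-well plates. Step 2: Expose to compound for 48 hours at 5 concentrations. Step 3: Interpolate endpoints linearly; if unreached, use highest concentration. The concentration for 50% growth inhibition is given as GI50.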 Calls of active or inactive are those of the source. No stated cut-off is given here; in the data, active = GI50 up to about 1.1 µM and inactive = higher.

Experiments:
Test in all cases: inhibition of tumour cell growth, NCI panel, 48 h
786-0 = test system: 786-0
A498 = test system: A498
A549 = test system: A549
ACHN = test system: ACHN
BT-549 = test system: BT-549
CAKI-1 = test system: CAKI-1
CCRF-CEM = test system: CCRF-CEM
COLO 205 = test system: COLO 205
DU-145 = test system: DU-145
EKVX = test system: EKVX
HCC 2998 = test system: HCC 2998
HCT-116 = test system: HCT-116
HCT-15 = test system: HCT-15
HL-60 = test system: HL-60
HOP-62 = test system: HOP-62
HOP-92 = test system: HOP-92
HT-29 = test system: HT-29
Hs-578T = test system: Hs-578T
IGROV-1 = test system: IGROV-1
K562 = test system: K562
KM12 = test system: KM12
LOX IMVI = test system: LOX IMVI
M14 = test system: M14
MCF7 = test system: MCF7
MDA-MB-231 = test system: MDA-MB-231
MDA-MB-435 = test system: MDA-MB-435
MDA-N = test system: MDA-N
MOLT-4 = test system: MOLT-4
Malme-3M = test system: Malme-3M
NCI-H226 = test system: NCI-H226
NCI-H23 = test system: NCI-H23
NCI-H460 = test system: NCI-H460
NCI-H522 = test system: NCI-H522
NCI/ADR-RES = test system: NCI/ADR-RES
OVCAR-3 = test system: OVCAR-3
OVCAR-4 = test system: OVCAR-4
OVCAR-5 = test system: OVCAR-5
OVCAR-8 = test system: OVCAR-8
PC-3 = test system: PC-3
RPMI-8226 = test system: RPMI-8226
RXF 393 = test system: RXF 393
SF-268 = test system: SF-268
SF-295 = test system: SF-295
SF-539 = test system: SF-539
SK-MEL-28 = test system: SK-MEL-28
SK-MEL-2 = test system: SK-MEL-2
SK-MEL-5 = test system: SK-MEL-5
SK-OV-3 = test system: SK-OV-3
SN12C = test system: SN12C
SNB-19 = test system: SNB-19
SNB-75 = test system: SNB-75
SR = test system: SR
SW-620 = test system: SW-620
T47D = test system: T47D
TK-10 = test system: TK-10
U-251 = test system: U-251
UACC-257 = test system: UACC-257
UACC-62 = test system: UACC-62
UO-31 = test system: UO-31

With `O=C(O)c1cc2ccccc2c(O)c1O` the GI50 (786-0) was 14.3 µM (inactive), the GI50 (A498) was 26.9 µM (inactive) and the GI50 (A549) was 19.8 µM (inactive). The GI50 (ACHN) was 16.9 µM (inactive), the GI50 (BT-549) was 16.1 µM (inactive) and the GI50 (CAKI-1) was 17.3 µM (inactive). The GI50 (CCRF-CEM) was 5.75 µM (inactive), the GI50 (COLO 205) was 16.8 µM (inactive) and the GI50 (DU-145) was 18.3 µM (inactive). The GI50 (EKVX) was 23.4 µM (inactive), the GI50 (HCC 2998) was 18.8 µM (inactive) and the GI50 (HCT-116) was 16.8 µM (inactive). The GI50 (HCT-15) was 19.7 µM, the GI50 (HL-60) was 19.4 µM (inactive) and the GI50 (HOP-62) was 18.9 µM (inactive). For the same molecule, the GI50 (HOP-92) was > 40.1 µM (inactive), the GI50 (HT-29) was 23.2 µM (inactive) and the GI50 (Hs-578T) was 8.13 µM (inactive). For the same molecule, the GI50 (IGROV-1) was 20.2 µM (inactive), the GI50 (K562) was 8.09 µM (inactive) and the GI50 (KM12) was 16.3 µM (inactive). The GI50 (LOX IMVI) was 3.52 µM (inactive), the GI50 (M14) was 4.79 µM (inactive) and the GI50 (MCF7) was 13.5 µM (inactive). The GI50 (MDA-MB-231) was 17.7 µM (inactive), the GI50 (MDA-MB-435) was 1.85 µM (inactive) and the GI50 (MDA-N) was 2.14 µM (inactive). The GI50 (MOLT-4) was 27.5 µM (inactive), the GI50 (Malme-3M) was 1.8 µM (inactive) and the GI50 (NCI-H226) was 13.7 µM (inactive). The GI50 (NCI-H23) was 7.29 µM (inactive), the GI50 (NCI-H460) was 22.9 µM (inactive) and the GI50 (NCI-H522) was 15.1 µM (inactive). For the same molecule, the GI50 (NCI/ADR-RES) was 19.4 µM (inactive), the GI50 (OVCAR-3) was 13.5 µM (inactive) and the GI50 (OVCAR-4) was 19 µM (inactive). The GI50 (OVCAR-5) was 16.9 µM (inactive), the GI50 (OVCAR-8) was 12.6 µM (inactive) and the GI50 (PC-3) was 12.8 µM (inactive). For the same molecule, the GI50 (RPMI-8226) was > 52.2 µM (inactive), the GI50 (RXF 393) was 17.3 µM (inactive) and the GI50 (SF-268) was 17.2 µM (inactive). For the same molecule, the GI50 (SF-295) was 15.3 µM (inactive), the GI50 (SF-539) was 22.8 µM (inactive) and the GI50 (SK-MEL-28) was 7.03 µM (inactive). The GI50 (SK-MEL-2) was 1.03 µM (active), the GI50 (SK-MEL-5) was 2.92 µM (inactive) and the GI50 (SK-OV-3) was 14.8 µM (inactive). The GI50 (SN12C) was 16.6 µM (inactive), the GI50 (SNB-19) was 17.9 µM (inactive) and the GI50 (SNB-75) was 17.9 µM (inactive). For the same molecule, the GI50 (SR) was > 45.4 µM (inactive), the GI50 (SW-620) was 19.7 µM (inactive) and the GI50 (T47D) was 25.8 µM (inactive). The GI50 (TK-10) was 21.9 µM (inactive), the GI50 (U-251) was 16.8 µM (inactive) and the GI50 (UACC-257) was 9.68 µM (inactive). For the same molecule, the GI50 (UACC-62) was 5.98 µM (inactive) and the GI50 (UO-31) was 20.5 µM (inactive).

In the case of `CC(C)[Si](OC1=C(C(=O)Nc2ccccc2Cl)CCCCC1)(C(C)C)C(C)C`, the GI50 (786-0) was > 100 µM (inactive), the GI50 (A498) was > 100 µM (inactive) and the GI50 (A549) was > 100 µM (inactive). For the same molecule, the GI50 (ACHN) was > 100 µM (inactive), the GI50 (BT-549) was > 100 µM (inactive) and the GI50 (CAKI-1) was > 100 µM (inactive). The GI50 (CCRF-CEM) was 0.462 µM (active), the GI50 (COLO 205) was > 100 µM (inactive) and the GI50 (DU-145) was > 100 µM (inactive). For the same molecule, the GI50 (EKVX) was > 100 µM (inactive), the GI50 (HCC 2998) was > 100 µM (inactive) and the GI50 (HCT-116) was > 100 µM (inactive). The GI50 (HCT-15) was greater than 100 µM, the GI50 (HL-60) was 1.97 µM (inactive) and the GI50 (HOP-62) was > 100 µM (inactive). The GI50 (HOP-92) was > 100 µM (inactive), the GI50 (HT-29) was > 100 µM (inactive) and the GI50 (Hs-578T) was > 100 µM (inactive). The GI50 (IGROV-1) was > 100 µM (inactive), the GI50 (K562) was > 100 µM (inactive) and the GI50 (KM12) was > 100 µM (inactive). For the same molecule, the GI50 (LOX IMVI) was > 100 µM (inactive), the GI50 (M14) was > 100 µM (inactive) and the GI50 (MCF7) was > 100 µM (inactive). For the same molecule, the GI50 (MDA-MB-231) was > 100 µM (inactive), the GI50 (MDA-MB-435) was > 100 µM (inactive) and the GI50 (MDA-N) was > 100 µM (inactive). For the same molecule, the GI50 (MOLT-4) was > 100 µM (inactive), the GI50 (Malme-3M) was > 100 µM (inactive) and the GI50 (NCI-H226) was > 100 µM (inactive). For the same molecule, the GI50 (NCI-H23) was > 100 µM (inactive), the GI50 (NCI-H460) was > 100 µM (inactive) and the GI50 (NCI-H522) was > 100 µM (inactive). For the same molecule, the GI50 (NCI/ADR-RES) was > 100 µM (inactive), the GI50 (OVCAR-3) was > 100 µM (inactive) and the GI50 (OVCAR-4) was > 100 µM (inactive). For the same molecule, the GI50 (OVCAR-5) was 97.9 µM (inactive), the GI50 (OVCAR-8) was > 100 µM (inactive) and the GI50 (PC-3) was > 100 µM (inactive). The GI50 (RPMI-8226) was > 100 µM (inactive), the GI50 (RXF 393) was > 100 µM (inactive) and the GI50 (SF-268) was > 100 µM (inactive). The GI50 (SF-295) was > 100 µM (inactive), the GI50 (SF-539) was > 100 µM (inactive) and the GI50 (SK-MEL-28) was > 100 µM (inactive). The GI50 (SK-MEL-2) was > 100 µM (inactive), the GI50 (SK-MEL-5) was > 100 µM (inactive) and the GI50 (SK-OV-3) was > 100 µM (inactive). The GI50 (SN12C) was > 100 µM (inactive), the GI50 (SNB-19) was > 100 µM (inactive) and the GI50 (SNB-75) was > 78.2 µM (inactive). The GI50 (SR) was > 100 µM (inactive), the GI50 (SW-620) was > 100 µM (inactive) and the GI50 (T47D) was > 100 µM (inactive). For the same molecule, the GI50 (TK-10) was > 100 µM (inactive), the GI50 (U-251) was > 100 µM (inactive) and the GI50 (UACC-257) was > 100 µM (inactive). The GI50 (UACC-62) was > 100 µM (inactive) and the GI50 (UO-31) was > 100 µM (inactive).
